Laboratory results: PubChem BioAssay (NCI)
Where “and” joins values, the source holds several entries; their conditions need not be identical. Identical values can stand only once.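 Method: 48-hour compound exposure of cells in 96-well plates, five concentrations, linear interpolation of endpoints. The concentration for 50% growth inhibition is given as GI50. TGI is the concentration that stops growth completely.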

Legend:
Assay in all cases: NCI anticancer screen, dose series, 48 h
UACC-62 melanoma = tested on: UACC-62 melanoma
LOX IMVI melanoma = tested on: LOX IMVI melanoma
UACC-257 melanoma = tested on: UACC-257 melanoma
A498 renal = tested on: A498 renal
COLO 205 colon = tested on: COLO 205 colon
SR leukemia = tested on: SR leukemia
SF-268 CNS = tested on: SF-268 CNS
NCI/ADR-RES ovarian = tested on: NCI/ADR-RES ovarian

Row | SMILES | GI50 (UACC-62 melanoma) [µM] | TGI (UACC-62 melanoma) | GI50 (LOX IMVI melanoma) [µM] | TGI (LOX IMVI melanoma) | GI50 (UACC-257 melanoma) [µM] | TGI (UACC-257 melanoma) [µM] | GI50 (A498 renal) [µM] | TGI (A498 renal) | GI50 (COLO 205 colon) [µM] | TGI (COLO 205 colon) | GI50 (SR leukemia) [µM] | TGI (SR leukemia) | GI50 (SF-268 CNS) [µM] | TGI (SF-268 CNS) | GI50 (NCI/ADR-RES ovarian) [µM] | TGI (NCI/ADR-RES ovarian) [µM]
1 | CCN(CC)CCOc1cc2c(C(=O)OC)c(C)oc2cc1C(C)=O | 9.4 | 21.5 µM | 10.2 | 22 µM | 13 | 31.7 | 53 | > 100 µM | 8.27 | 26.6 µM | 2.58 | 6.72 µM | 13.6 | 32.6 µM | 13.6 | 26.6
2 | COC(=O)C#Cc1ccc([N+](=O)[O-])cc1 | – | 6.86 µM | – | 2.64 µM | – | 7.12 | – | 22.6 µM | – | 3.41 µM | – | 1.07 µM | – | 14 µM | – | 21.8
3 | CN(CCC(=O)O)S(=O)(=O)c1ccccc1 | – | > 100 µM | – | > 100 µM | – | > 100 | – | > 100 µM | – | > 100 µM | – | > 100 µM | – | > 100 µM | – | > 100
4 | CO[C@H]1CC[C@@]2(C)C(=CC[C@H]3[C@@H]4C[C@H](O)C[C@@]4(C)CC[C@@H]32)C1 | 3.88 | 16.9 µM | 6.17 | 24.5 µM | 4.89 | 17.9 | 1.32 | 9.25 µM | 5.02 | 16.2 µM | 2.72 | 14.9 µM | 6.42 | 21.4 µM | 4.17 | 39.9
5 | O=C(O)c1cccc(CC(Br)C(=O)O)c1 (stereo not given) | – | > 100 µM | – | > 100 µM | – | > 100 | – | > 100 µM | – | > 100 µM | – | > 100 µM | – | > 100 µM | – | > 100
6 | CN(C)CC1CCn2c(c(C3=C(c4cn(C)c5ccccc45)C(=O)NC3=O)c3ccccc32)C1 (stereo not given) | 3.91 | 7.49 µM | 3.86 | 7.83 µM | 3.93 | 7.52 | 4.47 | 9.22 µM | 3.42 | 7.51 µM | 4.26 | 12.7 µM | 3.84 | 7.97 µM | 5.17 | 16.6
7 | Cc1cccc(N=C2c3cc([N+](=O)[O-])ccc3-c3c2cc([N+](=O)[O-])cc3[N+](=O)[O-])c1 | 5.03 | 20.2 µM | 1.57 | 2.93 µM | 6.81 | 34.5 | 27.8 | > 100 µM | 3.34 | 17.1 µM | 1.94 | 5.36 µM | 6.33 | 40.8 µM | 12.5 | > 100
8 | COc1ccc2c(c1)Cc1c-2c(NN)nc2ccccc12 | 25 | > 100 µM | 21.6 | 78.8 µM | 53.7 | > 100 | > 100 | > 100 µM | 22.1 | > 100 µM | 9.94 | > 100 µM | 25.3 | > 100 µM | 21 | > 100
9 | O=C1/C(=C/c2ccc(Cl)cc2)CN(C(=O)C(Cl)Cl)C/C1=C\c1ccc(Cl)cc1 | 0.19 | 0.426 µM | 0.0321 | 0.121 µM | 0.465 | 1.55 | 0.211 | 0.771 µM | 0.233 | 0.756 µM | 0.0395 | > 40.1 µM | 0.315 | 1.48 µM | 0.358 | > 32.9
10 | COc1cc(-c2nc3ccccc3s2)ccc1OCc1nc2n(n1)S(=O)(=O)c1ccccc1N2C | > 100 | > 100 µM | > 100 | > 100 µM | > 100 | > 100 | > 100 | > 100 µM | > 100 | > 100 µM | > 100 | > 100 µM | > 100 | > 100 µM | > 100 | > 100
11 | Cn1cnc2c(NCc3ccccc3)nc(NCCO)nc21 | 67.5 | > 89.9 µM and 302 µM | 48.4 | 81.4 µM and > 395 µM | 155 | > 474 | 28.8 | 83.3 µM and 311 µM | 82.2 | 69.7 µM and 282 µM | 69.1 | > 87 µM and 237 µM | 86.2 | > 91.2 µM and 223 µM | – | 319
12 | Nc1nccc(Nc2ccc(S(N)(=O)=O)cc2)n1 | – | > 100 µM | – | > 100 µM | – | > 100 | – | > 100 µM | – | > 100 µM | – | > 100 µM | – | > 100 µM | – | > 100
13 | C[C@]12CCC(=O)C=C1CC[C@@H]1[C@@H]2CC[C@]2(C)C(=O)/C(=C/c3cccc(OCCN4CCOCC4)c3)C[C@@H]12 | 11 | 27.5 µM | 9.44 | 26.6 µM | 6.13 | 19 | 18.5 | 36.1 µM | 5.21 | 25.5 µM | 4.72 | 22 µM | 13.6 | 76.6 µM | – | –
14 | COC1CC2CCC(C)[C@](O)(O2)C(=O)C(=O)N2CCCCC2C(=O)OC(C(C)CC2CCC(O)C(OC)C2)CC(=O)C(C)C=C(C)C(OC(=O)CN(C)C)C(OC)C(=O)C(C)CC(C)/C=C/C=C/C=C\1C (stereo not given in full) | – | 20.2 µM | – | 16.7 µM | – | 24.1 | – | 11.9 µM | – | 25.2 µM | – | – | – | 14.8 µM | – | –
15 | O=C(Nc1ccc(Br)c(Cl)c1)c1cc(F)ccc1O | 0.242 | 2.09 µM | 0.553 | 3.04 µM | 0.526 | 2.79 | 0.162 | 1.03 µM | 2.75 | 13.9 µM | 0.547 | – | 0.996 | > 33.6 µM | 1.04 | > 15.6
16 | CN1CCN(Cc2ccc(NC(=O)c3cncc(C#Cc4c(N)ncc5cc(F)ccc45)c3)cc2C(F)(F)F)CC1 | 1.88 | 5.18 µM | 0.587 | 1.26 µM | 0.975 | 2.4 | 0.839 | 3.99 µM | 0.581 | 4.93 µM | 1.47 | 50 µM | 0.884 | 1.9 µM | 1.03 | 2.46
